According to US6358885B1, “Substituted phenylheterocyclic herbicides” (Mississippi State University, priority 1992, dated 2002):

Legend:
Assay in all cases: Test F preemergence/postemergence greenhouse plant response rating 0 to 100
winter barley = type: in vivo, Hordeum vulgare cv. ‘Igri’; conditions: POSTEMERGENCE, 0 to 100 scale
Source text: (§1) Compounds evaluated in this test were formulated in a non-phytoxic solvent and applied to the soil surface before plant seedlings emerged (preemergence application) and to plants that were in the one-to-four leaf stage (postemergence application). A sandy loam soil was used for the preemergence test while a mixture of sandy loam soil and greenhouse potting mix in a 60:40 ratio was used for the postemergence test. Test compounds were applied within approximately one day after planting seeds for the preemergence test. Plantings of these crops and weed species were adjusted to produce plants of appropriate size for the postemergence test. All plant species were grown using normal greenhouse practices. Crop and weed species include winter barley (Hordeum vulgare cv. ‘Igri’), blackgrass (Alopecurus myosuroides), chickweed (Stellaria media), downy brome (Bromus tectorum), field violet (Viola arvensis), galium (Galium aparine), green foxtail (Setaria viridis), kochia (Kochia scoparia), lambsquarters (Chenopodium album), speedwell (Veronica persica), rape (Brassica napus), ryegrass (Lolium multiflorum), sugar beet (Beta vulgaris cv. ‘USl’), sunflower (Helianthus annuus cv. ‘Russian Giant’), spring wheat (Triticum aestivum cv. ‘ERA’), winter wheat (Triticum aestivum cv. ‘Talent’), wild buckwheat (Polygonum convolvulus), wild mustard (Sinapis arvensis), wild oat (Avena fatua), and wild radish (Raphanus raphanistrum). Blackgrass, galium and wild oat were treated at two growth stages. […] Treated plants and untreated controls were maintained in a greenhouse for approximately 21 to 28 days, after which all treated plants were compared to untreated controls and visually evaluated. […] A dash response (-) means no test result.

chickweed = type: in vivo, Stellaria media; conditions: POSTEMERGENCE, 0 to 100 scale
Source text: as §1

field violet = type: in vivo, Viola arvensis; conditions: POSTEMERGENCE, 0 to 100 scale
Source text: as §1

kochia = type: in vivo, Kochia scoparia; conditions: POSTEMERGENCE, 0 to 100 scale
Source text: as §1

sugar beet = type: in vivo, Beta vulgaris cv. ‘USl’; conditions: POSTEMERGENCE, 0 to 100 scale
Source text: as §1

wild mustard = type: in vivo, Sinapis arvensis; conditions: POSTEMERGENCE, 0 to 100 scale
Source text: as §1

wild oat = type: in vivo, Avena fatua; conditions: POSTEMERGENCE, 0 to 100 scale; for Wild oat (1) plant response rating: stage (1) two to three leaves; for Wild oat (2) plant response rating: stage (2) approximately four leaves or initial tillering
Source text: as §1

In the case of `CCOC(=O)COc1cc(-c2nn3c(c2Cl)CCCC3)c(F)cc1Cl` [Compound 42], the “Winter Barley plant response rating” value (winter barley; Rate 2 g/ha) is reported as 10, the “Winter Barley plant response rating” value (winter barley; Rate 4 g/ha) is reported as 10 and the “Winter Barley plant response rating” value (winter barley; Rate 8 g/ha) is reported as 10. The “Winter Barley plant response rating” value (winter barley; Rate 16 g/ha) was 10, the “Winter Barley plant response rating” value (winter barley; Rate 32 g/ha) was 10 and the “Chickweed plant response rating” value (chickweed; Rate 2 g/ha) was 0. For the same compound, the “Chickweed plant response rating” value (chickweed; Rate 4 g/ha) was 0, the “Chickweed plant response rating” value (chickweed; Rate 8 g/ha) was 0 and the “Chickweed plant response rating” value (chickweed; Rate 16 g/ha) was 0. The “Chickweed plant response rating” value (chickweed; Rate 32 g/ha) was 0, the “Field violet plant response rating” value (field violet; Rate 2 g/ha) was 0 and the “Field violet plant response rating” value (field violet; Rate 4 g/ha) was 0. The “Field violet plant response rating” value (field violet; Rate 8 g/ha) was 10, the “Field violet plant response rating” value (field violet; Rate 16 g/ha) was 70 and the “Field violet plant response rating” value (field violet; Rate 32 g/ha) was 80. The “Kochia plant response rating” value (kochia; Rate 2 g/ha) was 75, the “Kochia plant response rating” value (kochia; Rate 4 g/ha) was 80 and the “Kochia plant response rating” value (kochia; Rate 8 g/ha) was 80. The “Kochia plant response rating” value (kochia; Rate 16 g/ha) was 100, the “Kochia plant response rating” value (kochia; Rate 32 g/ha) was 100 and the “Sugar beet plant response rating” value (sugar beet; Rate 2 g/ha) was 100. The “Sugar beet plant response rating” value (sugar beet; Rate 8 g/ha) was 100, the “Sugar beet plant response rating” value (sugar beet; Rate 16 g/ha) was 100 and the “Sugar beet plant response rating” value (sugar beet; Rate 32 g/ha) was 100. For the same compound, the “Wild mustard plant response rating” value (wild mustard; Rate 2 g/ha) was 40, the “Wild mustard plant response rating” value (wild mustard; Rate 4 g/ha) was 100 and the “Wild mustard plant response rating” value (wild mustard; Rate 16 g/ha) was 100. For the same compound, the “Wild mustard plant response rating” value (wild mustard; Rate 32 g/ha) was 100, the “Wild oat (1) plant response rating” value (wild oat; Rate 2 g/ha) was 0 and the “Wild oat (2) plant response rating” value (wild oat; Rate 2 g/ha) was 0. For the same compound, the “Wild oat (1) plant response rating” value (wild oat; Rate 4 g/ha) was 0, the “Wild oat (2) plant response rating” value (wild oat; Rate 4 g/ha) was 0 and the “Wild oat (1) plant response rating” value (wild oat; Rate 8 g/ha) was 0. For the same compound, the “Wild oat (2) plant response rating” value (wild oat; Rate 8 g/ha) was 0, the “Wild oat (1) plant response rating” value (wild oat; Rate 16 g/ha) was 0 and the “Wild oat (2) plant response rating” value (wild oat; Rate 16 g/ha) was 0. For the same compound, the “Wild oat (1) plant response rating” value (wild oat; Rate 32 g/ha) was 10 and the “Wild oat (2) plant response rating” value (wild oat; Rate 32 g/ha) was 10.
